According to US10261017B2, “Methods for detecting and categorizing skin sensitizers” (University of Mississippi, priority 2014, dated 2019):
Read-outs that look alike come from different tables or passages of the source. Marks after values point to notes of the source that are not given here.

How the values were obtained:
[1] = Microplate spectrophotometric method (DCYA assay), fluorescence end-point; settings: for DCYA 100-RI: RI = reactivity index, 2 equiv. electrophile, pH 10 buffer; for DCYA binary classification: FN: false negative; for DCYA binary classification: FP: false positive; for DCYA assay reactivity / classification in words: microplate spectrophotometric method; for DCYA binary classification: TN: true negative; for DCYA binary classification: TP: true positive, positive if 100-RI <95
thiol peptide [2] = test: Cys-DPRA (Direct Peptide Reactivity Assay), literature data; settings: for Cys-DPRA binary classification: FN: false negative; for Cys-DPRA binary classification: FP: false positive; for Cys-DPRA binary classification: TN: true negative; for Cys-DPRA binary classification: TP: true positive
[3] = cited from earlier work
thiol peptide [4] = settings: cited from earlier work; for Cys-DPRA, percentage of thiol peptide depleted: adopted from the literature; for Cys-DPRA % Pept. remain.: reported results from the literature
[5] = tested on: ARE-dependent gene activity in a recombinant cell line; settings: cited from earlier work
[6] = NMR method: depletion of electrophile signal on reaction with DCYA; settings: for Conversion rate: 0.1 M DCYA, 0.1 M L-carvone
Excerpt: The described example can be applied to pure chemicals and mixtures. The method includes the acquisition of at least one NMR spectrum, mixing an electrophile and a nucleophile to acquire an array of control spectra and an addition of catalyst to record an array of reaction spectra. It also includes the quantification of at least one signal and the comparison of the signal with a control and the classification of the reaction based on the depletion of potential sensitizer based on the quantified residual signal.
2,5-Dimethylfuran was used as internal standard. When necessary, characterization of the product(s) formed during the reaction(s) was performed by homonuclear ^1H connectivities using 2D-COSY experiments. […] Two- and three bond ^1H-^13C connectivities were determined by gradient-HMBC experiments in which the evolution period for long-range ^1H-^13C coupling constants was optimized for a ^2,3JC,H of 8 Hz. Through-space ^1H connectivities were determined using a NOESY experiment with a mixing time of 0.450 s. […] Toronto, Canada].
In a 3 mm NMR tube, 1 volume of DCYA (100) mM in CDCl3) was mixed with one volume of sensitizer (100 mM in CDCl3) to give a final concentration of 50 mM for both DCYA and the sensitizer. Control ^1H NMR spectra (reference spectra) were recorded at regular intervals of for a minimum of 5 min. […] All spectra were recorded at constant temperature. All experiments were conducted using the manufacturer's standard presaturation pulse programs and experimental conditions were chosen as explained in NMR spectroscopy section. The progress of the reaction was followed by the diminished peak areas of the resonances for the signal of interest. The spectra were phased, referenced, and integrated using NMR data elaboration software. The structural characterizations of the resulting adducts were confirmed by conducting additional 2D-NMR experiments when necessary.
Covalent reaction of DCYA with carvone is dependent on the activation of the nucleophilic group (ex. sulfhydryl group to the reactive thio-anion) under basic conditions. This reaction is strongly dependent on the nature of the nucleophile and may be modulated by careful choice of the model nucleophile and the reaction conditions.
The control spectra are used as reference spectra (FIG. 3A). All the spectra were subjected to automatic phase and baseline correction using a Bernstein polynomial fit (order 3). After these two steps, all the spectra were integrated over the areas of interest. […] Both vinylic and adduct peak areas were normalized relative to the internal standard signal peaks. […] The concentrations of both electrophile and adduct were then plotted as percentage against time (in minutes). (FIG. 5).

[7] = 2.1 mM, pH 10
thiol peptide [8] = tested on: thiol peptide
[9] = effective concentration, published literature (Table 1)
[10] = based on depletion of electrophile signal at 30 min
[11] = conversion of test chemical at 90 min, 1 equiv. DCYA, 0.1 equiv. DBN, CDCl3

SMILES	DCYA 100-RI [1]	DCYA binary classification: FN [1]	DCYA binary classification: FP [1]	DCYA binary classification: TN [1]	DCYA binary classification: TP [1]	Cys-DPRA binary classification: FN (thiol peptide [2])	Cys-DPRA binary classification: FP (thiol peptide [2])	Cys-DPRA binary classification: TN (thiol peptide [2])	Cys-DPRA binary classification: TP (thiol peptide [2])	LLNA (EC3) [3, 9]	LLNA Classification ([3]; published literature)	LLNA EC3 ([3]; reported results (Table 7))	Cys-DPRA, percentage of thiol peptide depleted (thiol peptide [4])	Cys-DPRA % Pept. remain. (thiol peptide [4])	KeratinoSens ™ EC3 ([5]; published literature (Table 1))	KeratinoSens ™ EC3 ([5]; reported results (Table 7))	NMR assay reactivity / classification in words [6]	Conversion at t30 (depletion of electrophile signal) ([6]; at 30 min, 1 equiv. DCYA)	NMR Classification [6, 10]	NMR Method conversion [6, 11]	other results
O=C1C=CC(=O)C=C1 [p-Benzoquinone]	34.5	0	0	0	1	0	0	0	1	0.01%	Extreme	0.01%	99.0%	1%	32.77 µM	32.77 µM	high reactivity	95%	Strong	95^# %	DCYA assay reactivity / classification in words [1]: correctly identified as a sensitizer; Depletion in less than five minutes ([6]; NMR, less than five minutes): > 95%
C=C(C)C1CC=C(C=O)CC1 (centres unmarked) [Perillaldehyde]	95.8	1	0	0	0	0	0	0	1	8.1%	Moderate	8.1%	31.9%	68.1%	61.85 µM	61.85 µM	moderate/low electrophilic behavior	28%	Weak-moderate	28%	
OCCc1ccc(O)c(O)c1 [3-Hydroxytyrosol]																	almost unreactive	6%		6%	LLNA (EC3) ([3]; mouse, in vivo): 0.6%; LLNA Classification ([3]; mouse, in vivo): Strong; LLNA EC3 ([3]; mouse, in vivo): 0.6%; Cys-DPRA reactivity in words (thiol peptide [4]): non-reactive; DCYA 100-RI [7]: 97.2; NMR Classification [6]: Non^$
C=CC(=O)OCC [Ethyl acrylate]	−0.7	0	0	0	1	0	0	0	1	28%	Weak	28%	96.4%	3.6%	231.19 µM	231.19 µM		92%	Strong	93%	
Cn1sccc1=O [2-Methyl-4-isothiazolin-3-one]						0	0	0	1			1.9%		2.1%		29.56 µM					DCYA 100-RI [7]: 16.4; DCYA binary classification: FN [7]: 0; DCYA binary classification: FP [7]: 0; DCYA binary classification: TN [7]: 0; DCYA binary classification: TP [7]: 1
Oc1ccc(O)cc1 [p-Hydroquinone]	127.1									0.11%	Strong	0.11%	83.3%	16.7%	51.29 µM	51.29 µM	almost unreactive	5%	Non^$	5%	DCYA assay reactivity / classification in words [1]: non-reactive; Cys-DPRA reactivity in words (thiol peptide [4]; literature): non-reactive
O=c1ccc2ccccc2o1 [Coumarin]	97.2	0	0	1	0		0	1	0								almost unreactive		Non		Fluorescence response, Reaction (R), average of 9 readings ([1]; DCYA + test article + pH 10 buffer + resin): 1996.775 RFU; Cys-DPRA binary classification: FN (thiol peptide [8]): 0; Conversion at t30 (depletion of electrophile signal) ([6]; 30 min, 50 mM): 0%; NMR Method conversion ([6]; 90 min, 50 mM): 0%
C=C(C)[C@@H]1CC=C(C)C(=O)C1 [L-Carvone]	88.4	0	0	0	1	0	0	0			Moderate	13%	26.3^20%		258.71^20 μM			16%	Weak	16%	Depletion ([6]; 0.05 equivalents DBN, chloroform): 23%; Depletion ([6]; 0.1 equivalents DBN, chloroform): 35%; Depletion ([6]; 0.2 equivalents DBN, chloroform): 28%; Conversion rate ([6]; DMSO, 0.1 equiv. DBN): 42%; Conversion rate ([6]; acetonitrile, 0.1 equiv. DBN): 47%; Reaction between DCYA and carvone ([6]; aqueous pH 10 buffer (5% v/v) in acetonitrile, after 90 minutes): 42%; Electrophile depletion ([6]; excess of DCYA, chloroform, 0.1 equiv. DBN): around 37%; Depletion ([6]; excess of electrophile, 2 equiv., chloroform, 0.1 equiv. DBN): 21%; Depletion ([6]; excess of electrophile, 4 equiv., chloroform, 0.1 equiv. DBN): 8%
